Read-outs that look alike come from different tables or passages of the source. Each block holds one compound with its values, some of them ahead of it.
Key:
[1] = system: carrageenan-induced edema; assay: carrageenan-induced edema controlling test, sole edema method (Experiments 1 and 2); type: in vivo, male S.D. rats; conditions: for Control rate (carrageenan-induced edema): groups of 8 rats; for ED50: Rattus norvegicus, po, read-out: Median effective dose for carrageenan-induced edema ED50
Experimental: Effects of controlling carrageenan-induced edema were examined by the sole edema method, see Winter et al.; Pro. […] Exp. Biol. Med., 111, 544 (1962), wherein carrageenan was used as an inflaming agent and male S.D. rats weighing 150-180 g were used as the test animals (each group comprised 5 rats).
The test compound was dissolved in sesame oil and the solution was administered perorally to the rats 6 hours before the administration of the inflaming agent. The volumes of the hind leg soles were measured 3 hours after the administration of the inflaming agent. […] [formula] wherein a is the volume of the hind leg sole before the edema induction and b is the corresponding value after the edema induction. [formula] wherein c represents the average edema rate of the control group and d represents the edema rate of each animal to which the test compound was given.
Carrageenan-induced edema control rates were determined according to formula (2) in the same manner as in Experiment 1 except that each group comprised 8 rats.

[2] = system: adjuvant-induced arthritis; assay: adjuvant-induced arthritis controlling test; type: in vivo, F-344 rats; conditions: po; for ED50: Rattus norvegicus, 456 h, read-out: Median effective dose for adjuvant-induced arthritis ED50
Experimental: Arthritis was induced in F-344 rates (6 weeks) (Japanese Charles Liver) according to the method of Winder, C. V., et al; Arthritis Rheum. 12, 472-482 (1969) and the controlling effects were examined. 0.05 ml. of a suspension (6 mg/ml) of Mycobacterium butyricum (Difco) in liquid paraffin was in]ected in the sole of the right leg of each rat to induce arthritis. […] The former was dissolved in sesame oil and the latter was suspended in acacia. The administration of the test compounds was started on the same day as the adjuvant injection. The test compounds were administered perorally every day for 19 days.

[3] = continuous peroral administration for one week; type: in vivo, SD rats; conditions: 50 mg/kg per day and 200 mg/kg per day continuously for one week
gastric membranes = assay: effects on gastric membranes of normal rats (ulceration); type: in vivo, Wistar ST rats
Excerpt: Four hours thereafter, the ulceration conditions in the gastric membranes were examined.

in vivo = conditions: rat, po, peroral, 20% solution in sesame oil
[4] = system: cold restraint stress-induced ulcer, gastric membranes; assay: worsening of cold restraint stress-induced ulcer; type: in vivo, Wistar rats
Experimental: Cold restraint stress was applied to Wistar rats (7 weeks old) by a conventional method. […] Two hours after the application of stress, the length of ulcer (ulcer index) in the gastric membranes was measured.

[5] = comparison value for Indomethacin; species, sex and source not given; cited from earlier work
[6] = peroral, 6 hours before inflaming agent, measured 3 hours after, groups of 5 rats

SMILES: CC(C)=CCCC(C)=CCCC(C)=CCCC(C)=CCOC(=O)Cc1ccccc1Nc1c(Cl)cccc1Cl [Compound A, 2-[(2,6-Dichlorophenyl)amino]phenylacetic acid 3,7,11,15-tetramethyl-2,6,10,14-hexadecatetraenyl ester]
Control rate (carrageenan-induced edema) ([1]; dose 18 mg/kg, peroral): 34%

SMILES: CC(C)=CCCC(C)=CCCC(C)=CCOC(=O)C(C)c1ccc(CC(C)C)cc1 (stereo not shown) [Compound B, 2-(4-isobutylphenyl)propionic acid 3,7,11-trimethyl-2,6,10-dodecatrienyl ester]
Control rate (carrageenan-induced edema) ([1]; dose 60 mg/kg, peroral): 30%

health problem [3]: no health problem was observed
SMILES: COc1ccc2c(c1)c(CC(=O)OCC=C(C)CCC=C(C)CCC=C(C)C)c(C)n2C(=O)c1ccc(Cl)cc1 [Compound C, 1-(p-Chlorobenzoyl)-2-methyl-5-methoxy-3-indolylacetic acid 3,7,11-trimethyl-2,6,10-dodecatrienyl ester]
ED50 [1, 6]: 6.5 mg/kg
Control rate (carrageenan-induced edema) ([1]; dose 9 mg/kg, peroral): 40%
Control rate (carrageenan-induced edema) ([1]; dose 18 mg/kg, peroral): 42%
ED50 ([2]; peroral, every day for 19 days): 3.6 mg/kg
Number of ulcerated rats (gastric membranes; dose 153 mg/kg, peroral, 4 hours, fasted normal rats): 0/5

SMILES: COc1ccc2c(c1)c(CC(=O)OCC=C(C)CCC=C(C)CCC=C(C)CCC=C(C)C)c(C)n2C(=O)c1ccc(Cl)cc1 [Compound D, 1-(p-Chlorobenzoyl)-2-methyl-5-methoxy-3-indolylacetic acid 3,7,11,15-tetramethyl-2,6,10,14-hexadecatetraenyl ester]
Control rate (carrageenan-induced edema) ([1]; dose 9 mg/kg, peroral): 22%
Control rate (carrageenan-induced edema) ([1]; dose 18 mg/kg, peroral): 22%
LD50 (in vivo; female SD rats, read-out: LD50 female): 1530 to 3160 mg/kg
LD50 (in vivo; male SD rats, read-out: LD50 male): 2000 to 2520 mg/kg
health problem [3]: no health problem was observed

SMILES: CC(=O)Oc1ccccc1C(=O)OCC=C(C)CCC=C(C)C [Compound E, Acetylsalicylic acid 3,7-dimethyl-2,6-octadienyl ester]
Control rate (carrageenan-induced edema) ([1]; dose 400 mg/kg, peroral): 52%

SMILES: CC(C)Cc1ccc(C(C)C(=O)O)cc1 (stereo not shown) [Ibuprofen, reference compound]
ED50 [1, 6]: 7.7 mg/kg

SMILES: COc1ccc2c(c1)c(CC(=O)O)c(C)n2C(=O)c1ccc(Cl)cc1 [Indomethacin]
ED50 ([1]; 3 h): 2.9 mg/kg
Control rate (carrageenan-induced edema) ([1]; dose 9 mg/kg, peroral): 38%
ED50 [2]: 1.5 mg/kg
LD50/ED50 ratio in the adjuvant-induced arthritis test ([2]; rat, in vivo): 14-15
Ulcer index (mean ± S.E.) (gastric membranes; dose 20 mg/kg, peroral, 4 hours, fasted normal rats): 18.0 ± 3.2
Number of ulcerated rats (gastric membranes; rat, in vivo, 20 mg/kg): 5/5
Ulcer index (Mean ± S.E.), length of ulcer ([4]; dose 20.0 mg/kg, peroral, two hours after application of stress): 36.5 ± 7.3
macroscopic observation of gastric ulcer ([4]; rat, in vivo): linear ulcer accompanied with copious bleeding was clearly recognized
stress-induced ulcer ([4]; rat, in vivo): increased significantly
LD50 [5]: 18 mg/kg

Reference: patent US4709079A, “Polyprenyl compounds, process for the production thereof and medicines containing same” (priority 1981, dated 1987)
